Results from US20200239530A1, “COMPOUNDS AND METHODS OF MODULATING PROTEIN DEGRADATION” (Vividion Therapeutics, Inc., priority 2017, published 2020).

Experiments:
Assay in all cases: Cysteine liganding, probe competition
Assay type in all cases: binding
UniProt P0DH78 = biological target: T1, UniProt P0DH78 (Homo sapiens, UniProt P0DH78); details: read-out: percent_inhibition
T1 construct: 200 μL of lysate containing 5 mg/ml proteome was treated with 2 μL of 100× compound stock; endogenous in cells
Excerpt: (§1) The following 96-well sample prep protocol was used for sample preparation.

UniProt Q96PU5 = biological target: T2, UniProt Q96PU5 (Homo sapiens, UniProt Q96PU5)
T2 construct: Cells were resuspended in cold PBS on ice and sonicated with a probe sonicator to achieve lysis; endogenous in cells
Excerpt: as §1

UniProt O00635 = biological target: T3, UniProt O00635 (Homo sapiens, UniProt O00635)
T3 construct: 200 μL of lysate containing 5 mg/ml proteome was treated with 2 μL of 100× compound stock; endogenous in cells
Excerpt: as §1

UniProt Q9BYV6 = biological target: T4, UniProt Q9BYV6 (Homo sapiens, UniProt Q9BYV6); details: read-out: KB02_500 uM_percent_inhibition
T4 construct: 200 μL of lysate containing 5 mg/ml proteome was treated with 2 μL of 100× compound stock; endogenous in cells
Excerpt: as §1

UniProt Q15366 = biological target: T5, UniProt Q15366 (Homo sapiens, UniProt Q15366); details: read-out: KB02_500 uM_percent_inhibition
T5 construct: Cells were resuspended in cold PBS on ice and sonicated with a probe sonicator to achieve lysis; endogenous in cells
Excerpt: as §1

UniProt Q13114 = biological target: T6, UniProt Q13114 (Homo sapiens, UniProt Q13114); details: read-out: percent_inhibition
T6 construct: 200 μL of lysate containing 5 mg/ml proteome was treated with 2 μL of 100× compound stock; endogenous in cells
Excerpt: as §1

[1] = biological target: T7, DTL Denticleless protein homolog (Homo sapiens, UniProt Q9NZJ0)
T7 construct: Cells were resuspended in cold PBS on ice and sonicated with a probe sonicator to achieve lysis; endogenous in cells
In short: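 Steps: sonicate cells in cold PBS; treat 5 mg/ml lysate with compound (25° C, 1 hr); add desthiobiotin iodoacetamide probe from a 10 mM stock (25° C, 1 hr); precipitate, reduce, alkylate, digest with trypsin; capture labelled peptides on streptavidin for analysis.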

UniProt Q96AX9 = biological target: T8, UniProt Q96AX9 (Homo sapiens, UniProt Q96AX9)
T8 construct: Cells were resuspended in cold PBS on ice and sonicated with a probe sonicator to achieve lysis; endogenous in cells
Excerpt: as §1

UniProt Q6ZMN7 = biological target: T9, UniProt Q6ZMN7 (Homo sapiens, UniProt Q6ZMN7); details: read-out: KB05_500 uM_percent_inhibition
T9 construct: 200 μL of lysate containing 5 mg/ml proteome was treated with 2 μL of 100× compound stock; endogenous in cells
Excerpt: as §1

UniProt O75382 = biological target: T10, UniProt O75382 (Homo sapiens, UniProt O75382); details: 100 uM
T10 construct: 200 μL of lysate containing 5 mg/ml proteome was treated with 2 μL of 100× compound stock; endogenous in cells
Excerpt: as §1

UniProt P14373 = biological target: T11, UniProt P14373 (Homo sapiens, UniProt P14373); details: 100 uM
T11 construct: 200 μL of lysate containing 5 mg/ml proteome was treated with 2 μL of 100× compound stock; endogenous in cells
Excerpt: as §1

UniProt Q8NG27 = biological target: T12, UniProt Q8NG27 (Homo sapiens, UniProt Q8NG27); details: 100 uM
T12 construct: 200 μL of lysate containing 5 mg/ml proteome was treated with 2 μL of 100× compound stock; endogenous in cells
Excerpt: as §1

T7 sequence (Q9NZJ0 whole entry): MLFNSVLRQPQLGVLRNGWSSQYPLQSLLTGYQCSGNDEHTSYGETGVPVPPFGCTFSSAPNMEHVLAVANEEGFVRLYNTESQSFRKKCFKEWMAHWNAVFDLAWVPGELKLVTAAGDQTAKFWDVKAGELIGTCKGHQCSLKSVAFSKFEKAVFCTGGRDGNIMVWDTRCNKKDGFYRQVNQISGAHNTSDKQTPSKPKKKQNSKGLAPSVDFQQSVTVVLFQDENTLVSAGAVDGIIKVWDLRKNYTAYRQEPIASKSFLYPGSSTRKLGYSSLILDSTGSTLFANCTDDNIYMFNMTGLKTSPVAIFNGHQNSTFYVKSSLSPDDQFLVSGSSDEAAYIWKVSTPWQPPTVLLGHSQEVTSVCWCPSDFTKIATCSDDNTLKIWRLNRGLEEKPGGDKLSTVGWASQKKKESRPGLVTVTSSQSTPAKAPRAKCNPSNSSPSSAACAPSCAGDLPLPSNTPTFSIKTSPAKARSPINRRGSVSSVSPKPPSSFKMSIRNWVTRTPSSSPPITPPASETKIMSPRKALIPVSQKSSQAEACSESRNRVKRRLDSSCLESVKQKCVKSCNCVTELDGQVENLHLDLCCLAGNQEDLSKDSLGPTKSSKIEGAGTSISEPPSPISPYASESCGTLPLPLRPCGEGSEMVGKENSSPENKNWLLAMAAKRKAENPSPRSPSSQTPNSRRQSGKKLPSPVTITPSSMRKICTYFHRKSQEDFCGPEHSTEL
T1 sequence (P0DH78 whole entry, change not shown): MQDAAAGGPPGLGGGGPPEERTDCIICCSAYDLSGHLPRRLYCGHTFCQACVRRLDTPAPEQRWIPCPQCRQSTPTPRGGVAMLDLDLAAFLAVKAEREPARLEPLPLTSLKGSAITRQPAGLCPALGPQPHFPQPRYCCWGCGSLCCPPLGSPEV
T8 sequence (Q96AX9 whole entry, change not shown): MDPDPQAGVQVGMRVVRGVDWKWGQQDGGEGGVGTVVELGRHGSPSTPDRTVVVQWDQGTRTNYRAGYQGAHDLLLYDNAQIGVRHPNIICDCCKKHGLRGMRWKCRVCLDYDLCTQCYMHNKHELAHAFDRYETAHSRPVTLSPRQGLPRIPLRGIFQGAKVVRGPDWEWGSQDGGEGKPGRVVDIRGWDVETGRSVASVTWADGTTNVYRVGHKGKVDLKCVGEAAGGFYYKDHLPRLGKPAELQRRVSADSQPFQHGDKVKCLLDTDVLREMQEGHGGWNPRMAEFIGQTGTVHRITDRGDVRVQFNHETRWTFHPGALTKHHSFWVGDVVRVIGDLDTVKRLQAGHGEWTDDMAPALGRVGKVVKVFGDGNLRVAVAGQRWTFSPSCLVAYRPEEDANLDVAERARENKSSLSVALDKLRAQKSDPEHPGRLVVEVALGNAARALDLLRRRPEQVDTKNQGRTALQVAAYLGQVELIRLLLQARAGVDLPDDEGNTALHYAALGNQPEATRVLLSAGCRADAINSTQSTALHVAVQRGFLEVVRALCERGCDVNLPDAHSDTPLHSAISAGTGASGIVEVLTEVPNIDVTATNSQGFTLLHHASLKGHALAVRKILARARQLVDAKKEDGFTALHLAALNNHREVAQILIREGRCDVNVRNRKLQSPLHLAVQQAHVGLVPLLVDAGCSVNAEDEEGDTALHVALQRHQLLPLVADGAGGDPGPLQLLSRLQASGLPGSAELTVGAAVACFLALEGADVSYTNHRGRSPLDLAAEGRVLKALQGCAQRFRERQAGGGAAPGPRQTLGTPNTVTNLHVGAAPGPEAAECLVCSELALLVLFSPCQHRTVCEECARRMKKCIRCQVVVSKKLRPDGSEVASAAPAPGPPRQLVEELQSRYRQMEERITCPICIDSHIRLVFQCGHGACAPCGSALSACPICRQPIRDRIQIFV
T3 sequence (O00635 whole entry, change not shown): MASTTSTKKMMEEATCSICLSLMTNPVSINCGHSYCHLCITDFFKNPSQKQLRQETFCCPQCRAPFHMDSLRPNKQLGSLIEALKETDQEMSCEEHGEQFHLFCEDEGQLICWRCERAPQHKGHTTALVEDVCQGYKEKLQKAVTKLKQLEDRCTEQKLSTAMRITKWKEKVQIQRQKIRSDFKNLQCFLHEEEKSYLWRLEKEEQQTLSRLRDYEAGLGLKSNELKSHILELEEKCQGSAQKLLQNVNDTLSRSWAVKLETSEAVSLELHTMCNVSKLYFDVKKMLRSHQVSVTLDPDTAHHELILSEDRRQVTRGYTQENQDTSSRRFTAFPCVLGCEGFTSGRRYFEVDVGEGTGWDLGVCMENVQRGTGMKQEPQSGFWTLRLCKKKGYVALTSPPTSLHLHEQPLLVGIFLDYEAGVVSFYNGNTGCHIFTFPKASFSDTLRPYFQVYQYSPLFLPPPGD
T2 sequence (Q96PU5 whole entry, change not shown): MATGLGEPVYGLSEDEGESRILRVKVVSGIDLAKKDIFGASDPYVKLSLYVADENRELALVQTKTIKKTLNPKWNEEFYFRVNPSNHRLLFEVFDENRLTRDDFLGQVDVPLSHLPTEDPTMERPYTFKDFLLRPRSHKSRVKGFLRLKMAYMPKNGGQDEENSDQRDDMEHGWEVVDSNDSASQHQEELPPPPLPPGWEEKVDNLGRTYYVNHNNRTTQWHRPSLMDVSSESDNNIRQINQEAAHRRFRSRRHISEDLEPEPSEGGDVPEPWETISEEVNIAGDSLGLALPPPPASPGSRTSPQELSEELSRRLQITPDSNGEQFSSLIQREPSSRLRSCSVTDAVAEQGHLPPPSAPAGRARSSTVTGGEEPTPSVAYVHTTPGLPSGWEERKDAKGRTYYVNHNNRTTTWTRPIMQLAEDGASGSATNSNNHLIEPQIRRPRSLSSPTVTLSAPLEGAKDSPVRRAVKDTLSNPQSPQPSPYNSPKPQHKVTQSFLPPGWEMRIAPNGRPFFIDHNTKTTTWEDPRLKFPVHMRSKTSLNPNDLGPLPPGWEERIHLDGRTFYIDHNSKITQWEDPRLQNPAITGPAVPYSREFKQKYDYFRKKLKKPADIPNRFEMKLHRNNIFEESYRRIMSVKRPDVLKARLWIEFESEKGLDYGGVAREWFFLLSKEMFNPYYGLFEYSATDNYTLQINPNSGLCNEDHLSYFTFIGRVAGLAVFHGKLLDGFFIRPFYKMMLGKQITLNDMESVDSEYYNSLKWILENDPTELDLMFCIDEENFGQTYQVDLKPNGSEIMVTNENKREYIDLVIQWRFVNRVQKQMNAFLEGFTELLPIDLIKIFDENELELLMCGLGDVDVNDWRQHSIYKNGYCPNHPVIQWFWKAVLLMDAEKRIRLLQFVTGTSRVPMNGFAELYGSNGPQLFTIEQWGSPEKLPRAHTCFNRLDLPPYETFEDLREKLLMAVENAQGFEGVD
T10 sequence (O75382 whole entry, change not shown): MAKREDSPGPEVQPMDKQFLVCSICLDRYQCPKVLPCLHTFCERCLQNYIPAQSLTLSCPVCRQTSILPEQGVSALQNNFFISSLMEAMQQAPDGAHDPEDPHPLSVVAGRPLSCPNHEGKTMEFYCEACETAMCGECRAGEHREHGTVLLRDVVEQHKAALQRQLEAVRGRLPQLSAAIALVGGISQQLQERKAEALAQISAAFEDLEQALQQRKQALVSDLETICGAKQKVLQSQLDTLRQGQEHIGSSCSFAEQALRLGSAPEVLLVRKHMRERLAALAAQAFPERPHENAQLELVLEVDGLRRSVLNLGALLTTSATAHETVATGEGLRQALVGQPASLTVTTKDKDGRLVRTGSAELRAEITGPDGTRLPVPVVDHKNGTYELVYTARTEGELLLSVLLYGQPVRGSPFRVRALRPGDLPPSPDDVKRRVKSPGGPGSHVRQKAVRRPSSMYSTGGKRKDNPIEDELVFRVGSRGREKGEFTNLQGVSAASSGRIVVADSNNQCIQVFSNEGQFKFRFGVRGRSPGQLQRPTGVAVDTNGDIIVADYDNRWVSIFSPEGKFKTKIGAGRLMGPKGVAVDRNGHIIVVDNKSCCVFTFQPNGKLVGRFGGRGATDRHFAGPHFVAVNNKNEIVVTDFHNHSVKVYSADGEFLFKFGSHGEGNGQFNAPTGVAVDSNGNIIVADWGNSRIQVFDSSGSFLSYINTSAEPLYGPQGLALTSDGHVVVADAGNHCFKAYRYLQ
T4 sequence (Q9BYV6 whole entry, change not shown): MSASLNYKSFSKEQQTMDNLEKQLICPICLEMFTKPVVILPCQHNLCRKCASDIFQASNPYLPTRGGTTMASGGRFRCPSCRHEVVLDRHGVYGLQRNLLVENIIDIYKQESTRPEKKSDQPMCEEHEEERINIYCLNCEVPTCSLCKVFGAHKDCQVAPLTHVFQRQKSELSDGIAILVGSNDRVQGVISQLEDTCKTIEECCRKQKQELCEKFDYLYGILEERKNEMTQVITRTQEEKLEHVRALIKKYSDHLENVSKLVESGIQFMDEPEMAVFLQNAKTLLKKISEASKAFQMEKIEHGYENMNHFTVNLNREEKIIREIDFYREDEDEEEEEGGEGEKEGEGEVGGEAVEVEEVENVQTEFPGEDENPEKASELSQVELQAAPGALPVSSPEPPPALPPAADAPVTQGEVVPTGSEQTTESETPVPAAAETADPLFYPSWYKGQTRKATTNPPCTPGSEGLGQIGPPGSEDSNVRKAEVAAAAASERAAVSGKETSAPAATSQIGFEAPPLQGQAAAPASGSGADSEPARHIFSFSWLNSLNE
T5 sequence (Q15366 whole entry, change not shown): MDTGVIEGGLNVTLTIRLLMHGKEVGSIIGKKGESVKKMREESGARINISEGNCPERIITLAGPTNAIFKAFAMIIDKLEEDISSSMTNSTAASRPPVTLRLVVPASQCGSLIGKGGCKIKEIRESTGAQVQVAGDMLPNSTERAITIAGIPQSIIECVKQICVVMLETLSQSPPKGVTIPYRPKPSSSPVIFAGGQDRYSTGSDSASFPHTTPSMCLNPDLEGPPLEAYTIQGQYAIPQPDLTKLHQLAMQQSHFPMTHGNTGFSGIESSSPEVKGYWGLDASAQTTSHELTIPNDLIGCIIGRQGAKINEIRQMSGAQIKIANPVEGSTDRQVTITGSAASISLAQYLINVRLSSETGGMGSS

Structure (SMILES): COc1ccc2c(c1)CCCN2C(=O)CCl [KB02]
- inhibition at 100 µM (UniProt P0DH78; 100 uM): 17%
- inhibition at 500 µM (UniProt P0DH78; 500 uM): 67%
- percent inhibition (UniProt Q96PU5; 100 uM): 33%
- inhibition at 100 µM (UniProt Q96PU5; read-out: percent inhibition): 30%
- KB02_100 uM_percent_inhibition (UniProt O00635; 100 uM): 7%
- inhibition at 100 µM (UniProt O00635; read-out: KB02_100 uM_percent_inhibition): 8%
- inhibition at 500 µM (UniProt Q9BYV6): 1%
- inhibition at 500 µM (UniProt Q15366): 45%
- inhibition at 100 µM (UniProt Q13114): 33%
- Liganded ([1]; DTL Res# 136, uniprot Q9NZJ0): YES
- Liganded ([1]; DTL Res# 141, uniprot Q9NZJ0): YES

Structure (SMILES): C=CC(=O)N(c1ccccc1)c1ccc(Br)cc1 [KB05]
- percent inhibition (UniProt Q96AX9; 100 uM): 9%
- inhibition at 100 µM (UniProt Q96AX9; read-out: percent inhibition): 11%
- inhibition at 500 µM (UniProt Q6ZMN7): 1%

Structure (SMILES): O=C(CCl)Nc1cc(C(F)(F)F)cc(C(F)(F)F)c1 [KBO3]
- KB03_100 uM_percent_inhibition (UniProt O75382): 45%
- KB03_100 uM_percent_inhibition (UniProt P14373): 13%
- KB03_100 uM_percent_inhibition (UniProt Q8NG27): 16%
